What was measured:
Type in all cases: biochemical
[1] = target: human acidic fibroblast growth factor (FGF-1) (Homo sapiens, UniProt P05230); test: FGF-1 thermal aggregation (turbidity at 360 nm); details: FGF-1 50 μg/mL, 50° C.; compound 1,000×; standard deviation in parenthesis
Method: (§1) Bovine insulin [Sigma, St. Louis, Mo., USA] was dissolved in phosphate saline (PBS) (50 mM sodium biphosphate, 100 mM sodium chloride), pH 7.0, bovine alpha-lactalbumin [Sigma] in 50 mM sodium phosphate, 100 mM sodium chloride and 2 mM EDTA, pH 6.2, chicken egg white lysozyme [Sigma] in 100 mM Tris, 1 mM EDTA, pH 8.2, human acidic fibroblast growth factor (FGF-1) in 6.2 mM sodium biphosphate, 120 mM sodium chloride, pH 7.2, porcine somatotropin (pST) [provided by Pfizer, Inc., Groton, Conn., USA] in 10 mM phosphate, pH 6. 1, human apolactoferrin (HLF) [Sigma] in 20 mM HEPES, 154 mM NaCl, pH 7.4, porcine heart citrate synthase (CS) in 40 mM HEPES, 50 mM KCl, 10 mM (NH4)2SO4 mM potassium acetate, pH 7.8, and yeast alcohol dehydrogenase (ADH) [Sigma] in pH 7.0 PBS. Selection of buffer solutions was based on an extensive series of preliminary studies to obtain appropriate insolubilization kinetics as described below.
(§2) The following compounds were obtained from Sigma and used without further purification: oxalic acid, sodium malonate, succinic acid, glutaric acid, adipic acid, pimelic acid, suberic acid, azelaic acid, guanidine hydrochloride, ammonium formate, beta-alanine, 4-aminobutyric acid, 5-aminovaleric acid, 6-aminocaproic acid, 7-aminoheptanoic acid, hydrazine, ethylenediamine, 1,3-diaminopropane, 1,4-diaminobutane, 1,5-diaminopentane, 1,6-diaminohexane, 1,7-diaminoheptane, Glu-Glu, Glu-Lys, Lys-Lys, diglycine, triglycine, tetraglycine, pentaglycine, and hexaglycine. […] Triglycine and tetraglycine were dissolved in pH 8.6 PBS, while pentaglycine and hexaglycine were dissolved in pH 10.6 PBS.
(§3) Each was either dissolved in pH 7.0 PBS, or pH 6.1 10 mM phosphate, and adjusted to the same pH.
(§4) Protein aggregation was monitored for 1 hour at 360 nm using an HP8453 UV-visible spectrophotometer system [Hewlett Packard, Germany]. […] Insulin (0.25 mg/mL (4.39E-5 M)) aggregation was monitored at 25° C. after addition of potential inhibitors and 20 μL of 1 M DTT (1.27E-4 M). Alpha-lactabumin (0.4 mg/mL (2.82E-5 M)) aggregation was monitored at 37° C. in the presence of 20 μL of 1 M DTT (1.27E-4 M). Lysozyme (0.4 mg/mL (2.86E-5 M)) aggregation was monitored at 25° C. in the presence of 20 μL of 1 M DTT (1.27E-4 M). FGF-1 (50 μg/mL (3.12E-6 M)) aggregation was monitored at 50° C. Porcine somatotropin (1.27 mg/mL (5.76E-5 M)) aggregation was monitored at 60° C. in the presence of PEG 8000 (20 mg/mL) which was included to enhance the protein association process through a simple exclusion volume effect. HLF (0.4 mg/mL (5.23E-6 M)) aggregation was monitored at 43° C. in the presence of 1.27E-4 M DTT. Citrate synthase (96 μg/mL (9.80E-7 M)) aggregation was monitored at45° C. ADH (1 mg/mL (7.14E-6 M)) was monitored at 37° C. following the addition of 7.76E-5 M Cu(OP)2. Aggregation was compared to protein in the absence of the particular dipolar compound. After stirring, experiments were initiated by the addition of proteins followed by stressing reagents to 1 cm pathlength cuvettes employing a seven-position thermostatted sample holder that was cycled at 30-second intervals. Alternatively, a microtiter plate reader was employed under the same conditions in a 96 well format.
(§5) All optical density (OD)360nm versus time results were exported into Excel [Microsoft] for data analysis. […] The maximum rate of change in OD versus time plots (r) was used to determine the rate of the reaction from the slope at this point.

[2] = target: T1, porcine heart citrate synthase (CS) (Sus scrofa, UniProt P00889); test: Citrate synthase thermal aggregation (turbidity at 360 nm); details: CS 96 μg/mL, 45° C.; compound 1,000X; standard deviation in parenthesis
T1 construct: porcine heart citrate synthase (CS); from tissue; host or cells: porcine heart
T1 sequence (P00889 28-464): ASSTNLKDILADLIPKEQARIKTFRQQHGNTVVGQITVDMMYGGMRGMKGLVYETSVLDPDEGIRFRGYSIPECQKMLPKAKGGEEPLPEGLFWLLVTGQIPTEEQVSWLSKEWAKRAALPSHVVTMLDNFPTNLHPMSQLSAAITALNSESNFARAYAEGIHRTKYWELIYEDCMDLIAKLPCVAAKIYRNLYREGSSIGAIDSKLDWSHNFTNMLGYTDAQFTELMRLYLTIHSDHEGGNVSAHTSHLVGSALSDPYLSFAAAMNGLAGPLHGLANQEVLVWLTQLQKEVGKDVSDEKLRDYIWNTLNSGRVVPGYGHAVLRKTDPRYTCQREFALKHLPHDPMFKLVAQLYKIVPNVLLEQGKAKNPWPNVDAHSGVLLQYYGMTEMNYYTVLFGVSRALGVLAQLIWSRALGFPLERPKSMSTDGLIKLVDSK
Method: as §1, §2, §3, §4, §5

[3] = target: T2, yeast alcohol dehydrogenase (ADH) (Saccharomyces cerevisiae, UniProt P00330); test: ADH oxidation-induced aggregation (turbidity at 360 nm), Cu(OP)2; details: ADH 1 mg/mL, 37° C., Cu(OP)2
T2 construct: purchased Sigma
T2 sequence (P00330 2-348 limits assumed): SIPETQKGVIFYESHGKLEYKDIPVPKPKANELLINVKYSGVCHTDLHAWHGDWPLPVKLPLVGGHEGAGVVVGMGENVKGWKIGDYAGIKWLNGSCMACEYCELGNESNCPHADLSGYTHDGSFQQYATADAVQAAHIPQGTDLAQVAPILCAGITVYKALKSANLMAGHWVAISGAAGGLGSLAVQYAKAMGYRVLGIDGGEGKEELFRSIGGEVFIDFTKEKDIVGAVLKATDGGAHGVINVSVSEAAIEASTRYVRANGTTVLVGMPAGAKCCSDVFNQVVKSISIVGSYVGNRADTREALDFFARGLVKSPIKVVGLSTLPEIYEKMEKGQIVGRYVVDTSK
Method: as §1
(§6) Copper O-phenanthroline (1,10-phenanthroline) was prepared by mixing copper sulfate hexahydrate [Fisher] and o-phenanthroline [Sigma] in a 1:2 ratio. 1 M Dithiothreitol (DTT) was prepared at pH 7.0 PBS. Polyethylene glycol (M.W. 8000, Union Carbide, Danbury, Conn., USA) (PEG) was prepared at 20 mg/mL in 10 mM phosphate, pH 6.1.
as §2, §3, §4
(§7) All optical density (OD)360nm versus time results were exported into Excel [Microsoft] for data analysis.

[4] = target: T3, porcine somatotropin (pST) (Sus scrofa, UniProt P01248); test: Porcine somatotropin aggregation (turbidity at 360 nm) with PEG 8000; details: pST 1.27 mg/mL, 60° C., compound 100X, standard deviation in parenthesis
T3 construct: purchased Pfizer, Inc., Groton, Conn., USA (provided, not bought)
T3 sequence (P01248 27-216): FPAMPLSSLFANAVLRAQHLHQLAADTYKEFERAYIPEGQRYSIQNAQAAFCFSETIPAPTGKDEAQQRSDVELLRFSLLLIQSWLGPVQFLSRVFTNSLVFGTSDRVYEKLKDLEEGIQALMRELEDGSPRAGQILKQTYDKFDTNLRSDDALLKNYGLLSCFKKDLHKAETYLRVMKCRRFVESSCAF
Method: as §1, §6, §2, §3, §4, §7

[5] = target: T4, chicken egg white lysozyme (Gallus gallus, UniProt P00698); test: Lysozyme aggregation (turbidity at 360 nm) induced by DTT; details: Lysozyme 0.4 mg/mL, 25° C., DTT; compound 1,000×; standard deviation in parenthesis
T4 construct: chicken egg white lysozyme [Sigma]; purchased Sigma; host or cells: egg white
T4 sequence (P00698 19-147): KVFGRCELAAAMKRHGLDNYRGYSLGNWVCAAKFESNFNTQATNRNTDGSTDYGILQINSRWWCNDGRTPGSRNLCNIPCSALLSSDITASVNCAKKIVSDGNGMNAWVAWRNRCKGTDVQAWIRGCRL
Method: as §1, §6, §2, §3, §4, §7

[6] = target: T5, Bovine insulin (Bos taurus, UniProt P01317); test: Insulin aggregation (turbidity at 360 nm) induced by DTT; details: Insulin 0.25 mg/mL, 25° C., DTT; compound 100×; standard deviation in parenthesis
T5 construct: purchased Sigma, St. Louis, Mo., USA
T5 sequence (P01317 25-54 limits assumed): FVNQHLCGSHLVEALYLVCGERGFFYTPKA
T5 sequence (P01317 85-105 limits assumed): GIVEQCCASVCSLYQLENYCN
Method: as §1, §6, §2, §3, §4, §7

[7] = target: T6, bovine alpha-lactalbumin (Bos taurus, UniProt P00711); test: Alpha-lactalbumin aggregation (turbidity at 360 nm) induced by DTT; details: for inhibition index: α Lactalbumin 0.4 mg/mL, 37° C., DTT, compound 1,000×, standard deviation in parenthesis
T6 construct: purchased Sigma
T6 sequence (P00711 20-142): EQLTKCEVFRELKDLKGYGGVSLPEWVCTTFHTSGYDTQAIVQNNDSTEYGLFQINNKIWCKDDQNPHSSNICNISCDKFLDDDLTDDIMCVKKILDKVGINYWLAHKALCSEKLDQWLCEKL
Method: as §1, §6, §2, §3, §4, §7

[8] = target: T7, human apolactoferrin (HLF) (Homo sapiens, UniProt P02788); test: HLF aggregation (turbidity at 360 nm) induced by DTT; details: HLF 0.4 mg/mL, 43° C., DTT; first HLF column, head 10,000×; standard deviation in parenthesis
T7 construct: purchased Sigma
T7 sequence (P02788 20-710): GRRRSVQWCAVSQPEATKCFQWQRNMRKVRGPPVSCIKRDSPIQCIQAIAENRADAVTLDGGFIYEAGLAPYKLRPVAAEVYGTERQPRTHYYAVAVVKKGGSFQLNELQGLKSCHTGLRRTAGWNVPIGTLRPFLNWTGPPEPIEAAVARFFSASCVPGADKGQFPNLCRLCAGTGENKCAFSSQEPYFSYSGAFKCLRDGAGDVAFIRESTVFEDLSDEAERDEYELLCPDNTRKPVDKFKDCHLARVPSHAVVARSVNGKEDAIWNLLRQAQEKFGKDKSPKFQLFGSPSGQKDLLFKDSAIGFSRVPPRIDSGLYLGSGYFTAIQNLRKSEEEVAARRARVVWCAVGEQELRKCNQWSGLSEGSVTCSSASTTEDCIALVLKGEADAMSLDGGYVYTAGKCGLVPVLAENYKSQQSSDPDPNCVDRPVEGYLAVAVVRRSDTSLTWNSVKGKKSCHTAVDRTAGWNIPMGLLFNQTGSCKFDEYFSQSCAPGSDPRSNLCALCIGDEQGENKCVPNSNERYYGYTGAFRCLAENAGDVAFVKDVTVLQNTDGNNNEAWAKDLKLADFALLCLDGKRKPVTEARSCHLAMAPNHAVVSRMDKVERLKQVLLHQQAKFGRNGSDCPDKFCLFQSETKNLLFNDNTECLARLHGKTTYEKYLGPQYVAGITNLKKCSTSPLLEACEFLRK
Method: as §1, §6, §2, §3, §4, §7

[9] = compound 1,000X, standard deviation in parenthesis

human acidic fibroblast growth factor (FGF-1), sequence (P05230 whole entry): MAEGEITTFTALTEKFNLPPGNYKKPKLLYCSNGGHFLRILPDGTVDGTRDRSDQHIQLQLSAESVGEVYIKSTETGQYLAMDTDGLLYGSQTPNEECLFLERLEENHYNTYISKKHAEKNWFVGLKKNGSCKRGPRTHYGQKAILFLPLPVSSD

Row | Substance | inhibition index [1] | inhibition index [2] | inhibition index [3, 9] | inhibition index [4] | inhibition index [5] | inhibition index [6] | inhibition index [7] | inhibition index [8] | inhibition index ([3]; compound 10,000X molar excess, Infinite = complete inhibition of aggregation over one hour) | inhibition of α-lactalbumin aggregation, in words [7]
1 | ^+NH3-(Lys)^+-(Gly)n-(Lys)^+-CONH2 [^+NH3—(K)^+—(G)2—(K)^+—CONH2] | 1.8 (0.3) | 0.7 (0.2) | 0.8 (0.1) | 1.2 (0.2) | 0.4 (0.1) | 1.8 (0.1) | 3.3 (0.9) | 1.3 (0.1) |  | 
2 | CH3—NH2-(Glu)^−-(Gly)n-(Glu)^−-COO^− [CH3—NH2—(E)^−—(G)3—(E)^−—COO^−] | 2.0 (0.3) | 1.0 (0.2) | 1.3 (0.1) | 1.2 (0.2) | 0.9 (0.2) | 1.3 (0.4) | 0.5 (0.3) | 1.5 (0.3) |  | 
3 | ^+NH3-(Lys)^+-(Gly)n-(Glu)^−-COO^− [KGGGGE] | 1.9 (0.4) | 1.8 (0.2) | 1.4 (0.1) | 0.6 (0.1) | 1.9 (0.5) | 1.0 (0.1) | 0.5 (0.1) | 0.8 (0.1) |  | 
4 | ^+NH3-(Lys)^+-(Gly)n-(Glu)^−-COO^− [KGE] | 1.7 (0.4) | 1.2 (0.2) | 1.3 (0.1) | 0.7 (0.0) | 2.8 (0.8) | 0.6 (0.3) | 0.3 (0.2) | 0.9 (0.1) |  | 
5 | CH3—NH2-(Glu)^−-(Gly)n-(Glu)^−-COO^− [CH3—NH2—(E)^−—(G)1—(E)^−—COO^−] | 1.9 (0.1) | 0.8 (0.1) | 1.6 (0.1) | 1.0 (0.1) | 0.9 (0.1) | 0.5 (0.2) | 0.2 (0.1) | 1.6 (0.1) |  | 
6 | KGGGGGE [^+NH3-(Lys)^+-(Gly)n-(Glu)^−-COO^−, n = 5] | 1.4 (0.3) | 2.0 (0.2) | 1.4 (0.2) | 0.5 (0.1) | 1.5 (0.4) | 1.3 (0.3) | 1.8 (0.2) | 0.8 (0.1) |  | 
7 | hexaglycine |  | 0.5 (0.1) | 1.7 (0.5) | 0.7 (0.1) | 0.0 (0.0) | 1.5 (0.7) | 4.2 (1.1) | 1.7 (1.5) | 20.3 | Potent inhibitors
8 | ^+NH3-(Lys)^+-(Gly)n-(Glu)^−-COO^− [KGGGE] | 1.9 (0.2) | 1.5 (0.1) | 1.2 (0.1) | 0.6 (0.1) | 3.4 (0.1) | 0.8 (0.1) | 0.6 (0.1) | 0.8 (0.1) |  | 
9 | ^+NH3-(Lys)^+-(Gly)n-(Lys)^+-CONH2 [^+NH3—(K)^+—(G)4—(K)^+—CONH2] | 2.0 (1.0) | 0.8 (0.2) | 1.5 (0.3) | 0.9 (0.0) | 1.4 (0.5) | 1.6 (0.3) | 1.4 (0.3) | 1.9 (0.2) |  | 
10 | ^+NH3-(Lys)^+-(Gly)n-(Glu)^−-COO^− [KGGE] | 1.2 (0.2) | 1.4 (0.4) | 0.8 (0.1) | 0.6 (0.1) | 2.6 (0.4) | 1.0 (0.3) | 0.5 (0.2) | 0.7 (0.1) |  | 
11 | ^+NH3-(Lys)^+-(Gly)n-(Lys)^+-CONH2 [^+NH3—(K)^+—(G)1—(K)^+—CONH2] | 2.3 (0.4) | 1.0 (0.3) | 1.2 (0.1) |  | 0.9 (0.2) | 0.9 (0.1) | 0.5 (0.2) | 1.5 (0.2) |  | 

Source: US20030125234A1, “Alteration of protein stability” (priority 2001, published 2003)
